Data reported in US11052100B2, “Stable nicotinamide riboside composition and preparation method thereof” (BONTAC BIO-ENGINEERING (SHENZHEN) CO., LTD, priority 2018, dated 2021).

Test: Stability accelerated test (purity of nicotinamide riboside by HPLC)
Type: physicochemical
Settings: 25° C.±2° C., relative humidity 60% ±10%, average of 3 samples
Experimental: The stability accelerated test was carried out on test subjects (nicotinamide riboside and the nicotinamide riboside composition prepared in Embodiment 1 to Embodiment 4 of the present invention) in accordance with the provisions of the Guidelines for Drug Stability Test in the Chinese Pharmacopoeia 2015. The test method was: taking 3 samples from each test subject in an environment with a temperature of 25° C.±2° C. and a relative humidity of 60% ±10%, taking samples once at the end of the 0th month, 1st month, 2nd month, 3rd month, and 6th month during the test period, detecting the purity of nicotinamide riboside by HPLC, and calculating an average value of 3 parts. In the table, 1, 2, 3 and 4 in the first column represent Embodiment 1, Embodiment 2, Embodiment 3 and Embodiment 4, respectively, NR represents nicotinamide riboside, KGM represents konjac glucomannan, and RA represents rebaudioside A.

NC(=O)c1ccc[n+]([C@@H]2O[C@H](CO)[C@@H](O)[C@H]2O)c1 [NR, Nicotinamide riboside]
purity of nicotinamide riboside by HPLC, 0th month (end of 0th month): 99.6% | purity of nicotinamide riboside by HPLC, 1st month (end of 1st month): 10.6% | purity of nicotinamide riboside by HPLC, 2nd month (end of 2nd month): 5.1% | purity of nicotinamide riboside by HPLC, 3rd month (end of 3rd month): 3.4% | purity of nicotinamide riboside by HPLC, 6th month (end of 6th month): 3.2%
